Source: patent US5225417A, “Opioid agonist compounds” (priority 1992, dated 1993)
Counter-ions that a name gives are not always drawn.

Experiments:
[1] = tested on: mice or rats; details: background statement; cited from earlier work
[2] = tested on: mice or rats; assay: Tail Flick Assay; assay type: in vivo
Excerpt: The "Tail Flick Assay" uses thermal pain of transient duration, and is a test in which the pain threshold of the mice or rats being analyzed has not been altered. It is useful for evaluating the ability of a compound or drug to increase the animal's pain threshold (i.e. prolong response latencies), rather than to restore normal thresholds.
The heat-induced response to the Tail Flick Assay is a reflex reaction mediated at the level of the spinal cord.
Opiate compounds having clinical efficacy as analgesics generally increase tail flick latencies. Thus, morphine and codeine are generally determined to be active in this test.
The Tail Flick Assay was performed generally in the manner described by G. Woolfe et al., "The Evaluation of the Analgesic Action of Pethidine Hydrochloride (Demerol)," J. Pharmacol. Exp. Ther., 80, 300, (1944), F. D'Amour et al., "A Method for Determining Loss of Pain Sensation," J. Pharmacol. Exp. Ther., 72, 74, 300-307 (1941), and E. Drower et al., "The Antinociceptive Effects of Prostaglandin Antagonists in the Rat," European Journal of Pharmacology, 133, 249-256 (1987).
Male Charles River albino mice and male Charles River Sprague-Dawley rats weighing 20 to 30 g and 200 to 250 g, respectively, was employed in this assay.
Tail flick response latencies (defined as the time that elapsed between the onset of a high intensity beam of light and the reflex removal of the mouse or rat's tail) was measured before (baseline) and again at fixed intervals after subcutaneous or intracerebro-ventricular administration of one of the compounds of the invention, or after the administration of saline (controls). The cut-off latencies established to prevent tissue damage in the animals are 12 seconds or 14 seconds in the mouse and rat, respectively, in the Tail Flick Assay. The significance of any increase in tail flick response latency is determined using analyses of variance.
One way analyses of variance were used to determine the significance of the effect of the compounds of the invention on response latencies.
"Activity" or "Inactivity" was determined at a particular concentration of the compound by a significant increase in tail flick latency above normal latencies.
The numbers in parentheses are calculated ED50 values.

[3] = target: δ opioid receptor (Rattus norvegicus, UniProt P33533); assay: Opiate Binding Assay, δ receptor (3[H]-DSLET displacement)
Chain of δ opioid receptor (P33533 whole entry): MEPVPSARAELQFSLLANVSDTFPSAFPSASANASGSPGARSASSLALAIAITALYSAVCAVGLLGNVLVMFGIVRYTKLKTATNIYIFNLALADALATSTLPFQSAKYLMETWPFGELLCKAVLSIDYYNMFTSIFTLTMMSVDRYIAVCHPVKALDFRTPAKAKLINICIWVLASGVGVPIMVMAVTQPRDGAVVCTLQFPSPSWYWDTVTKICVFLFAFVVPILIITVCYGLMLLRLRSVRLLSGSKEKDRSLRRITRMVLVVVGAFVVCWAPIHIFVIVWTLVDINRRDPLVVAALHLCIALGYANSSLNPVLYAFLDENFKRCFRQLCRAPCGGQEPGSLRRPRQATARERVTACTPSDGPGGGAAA

[4] = target: μ opioid receptor (Rattus norvegicus, UniProt P33535); assay: Opiate Binding Assay, μ receptor (3[H]-DAMGO displacement)
Chain of μ opioid receptor (P33535 whole entry): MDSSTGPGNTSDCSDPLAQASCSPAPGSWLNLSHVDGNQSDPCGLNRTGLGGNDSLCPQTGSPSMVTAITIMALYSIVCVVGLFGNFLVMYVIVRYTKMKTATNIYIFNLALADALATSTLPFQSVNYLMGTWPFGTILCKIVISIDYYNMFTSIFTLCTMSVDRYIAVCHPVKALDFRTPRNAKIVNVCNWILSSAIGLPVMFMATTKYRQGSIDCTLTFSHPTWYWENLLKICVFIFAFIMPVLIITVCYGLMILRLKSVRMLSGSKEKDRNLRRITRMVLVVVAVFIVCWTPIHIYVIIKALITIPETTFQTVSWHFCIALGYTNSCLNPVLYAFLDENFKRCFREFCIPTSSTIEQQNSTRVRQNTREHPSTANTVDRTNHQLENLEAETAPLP

## CN1CC[C@]23c4c5ccc(O)c4O[C@H]2[C@@H](O)C=C[C@H]3[C@H]1C5 [morphine]
[1]
  activity in tail flick test (general knowledge): active

## CC(=O)Oc1ccccc1C(=O)O [aspirin]
[1]
  activity in tail flick test (general knowledge): little activity

## Cc1cc(CC(=O)O)n(C)c1C(=O)c1ccc(Cl)cc1 [Zomax]
[1]
  activity in tail flick test (general knowledge): little activity

## COc1ccc2c3c1O[C@H]1[C@@H](O)C=C[C@H]4[C@@H](C2)N(C)CC[C@@]341 [codeine]
[1]
  activity in tail flick test (general knowledge): active

## CO[C@@]12Cc3c(oc4ccccc34)[C@@H]3Oc4c(O)ccc5c4[C@@]31CCN(C)[C@@H]2C5 (relative stereo) [Example IX, 6,7,8,8a,9,14b-hexahydro-8aβ-methoxy-7-methyl-4,8(R,α)-methano-4bS*-5H-bisbenzofuro [3,2-e:2',3'-g]isoquinolin-1-ol, monohydrochloride]
[2]; intracerebroventricular
  Tail flick activity, intracerebroventricular: 10.5 nmol
  active dose in tail flick, intracerebroventricularly: ca. 10 nmoles
[2]; subcutaneous
  Tail flick activity, subcutaneous (active at): > 30 mpk
[3]
  IC50: 1 nM
[3]; ratio of mean IC50 values for μ and δ opioid receptors
  Mean IC50 μ/δ Ratio: 430
[4]
  IC50: 430 nM
